Values joined by “and” are separate entries in the source; they are usually repeats but may differ in a detail not shown here. Equal values may be shown once.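 In this assay, cells in 96-well plates receive the compound at five concentrations for 48 hours. Endpoints are linearly interpolated between the surrounding concentrations. The concentration for 50% growth inhibition is given as GI50. At the TGI there is no net growth.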 Where a SMILES comes first, the peptide text is derived from it. [ ]: non-standard residue; d: D form. pGlu = O=C1CC[CH](C(=O)O)N1
Experiments:
Experiment in all cases: growth of human tumour cells (NCI), 48 h
HCT-116 colon = system: HCT-116 colon
MDA-MB-435 = system: MDA-MB-435
SN12C renal = system: SN12C renal
786-0 renal = system: 786-0 renal
MCF7 breast = system: MCF7 breast
LOX IMVI melanoma = system: LOX IMVI melanoma
HS 578T breast = system: HS 578T breast
SNB-75 CNS = system: SNB-75 CNS
ACHN renal = system: ACHN renal
A498 renal = system: A498 renal

SMILES	GI50 (HCT-116 colon)	TGI (HCT-116 colon)	GI50 (MDA-MB-435)	TGI (MDA-MB-435)	GI50 (SN12C renal)	TGI (SN12C renal)	GI50 (786-0 renal)	TGI (786-0 renal)	GI50 (MCF7 breast)	TGI (MCF7 breast)	GI50 (LOX IMVI melanoma)	TGI (LOX IMVI melanoma)	GI50 (HS 578T breast)	TGI (HS 578T breast)	GI50 (SNB-75 CNS)	TGI (SNB-75 CNS)	GI50 (ACHN renal)	TGI (ACHN renal)	GI50 (A498 renal)	TGI (A498 renal)
COc1cccc(N2CCN(CC(=O)N3CCN(c4nnc(-c5ccc(Cl)cc5)c(-c5ccc(Cl)cc5)n4)CC3)CC2)c1	5.98 µM	> 100 µM	9.26 µM	> 100 µM	23.1 µM	> 100 µM	16.3 µM	62.3 µM	5.14 µM	61.3 µM	21.3 µM	> 100 µM	22 µM	85.7 µM	19 µM	52.9 µM	10.8 µM	32.1 µM	19.6 µM	52.1 µM
CSC(=Nc1nnc(-c2ccc([N+](=O)[O-])cc2)s1)SC		> 83.7 µM		> 100 µM		> 100 µM		55.5 µM		> 100 µM		> 83.3 µM		> 81.8 µM		33.6 µM		> 100 µM		64.6 µM
CN(/N=C/c1cccc2cccnc12)c1ccc([N+](=O)[O-])cc1[N+](=O)[O-]		> 82.1 µM		> 100 µM		> 100 µM		35.8 µM		> 100 µM		> 100 µM		34.8 µM		25.8 µM		59.3 µM		43.7 µM
CCN1C(=O)N(CC)C2C1NN=c1s/c(=C\c3cccc(F)c3)c(=O)n12 (stereo not drawn)	0.131 µM	> 100 µM	0.0271 µM	0.0833 µM	0.38 µM	> 100 µM	0.657 µM	> 100 µM	0.0392 µM	> 100 µM	0.11 µM	> 100 µM	0.0899 µM	> 100 µM	0.0745 µM	> 100 µM	0.196 µM	> 100 µM	< 0.0184 µM	0.184 µM
CCNC(=O)C1CCCN1C(=O)C(CCCN=C(N)N)NC(=O)C(CC(C)C)NC(=O)C(CC(C)C)NC(=O)C(Cc1ccc(O)cc1)NC(=O)C(CO)NC(=O)C(Cc1c[nH]c2ccccc12)NC(=O)C(Cc1cnc[nH]1)NC(=O)C1CCC(=O)N1 (stereo not drawn) ([pGlu]HWSYLLRP-NHEt; configuration not given here)	> 100 µM	> 100 µM	> 100 µM	> 100 µM	> 100 µM	> 100 µM	> 100 µM	> 100 µM	> 100 µM	> 100 µM	> 100 µM	> 100 µM	> 100 µM	> 100 µM	> 100 µM	> 100 µM	> 100 µM	> 100 µM	> 100 µM	> 100 µM
COC(=O)C1CC23CCCN4CCC5(c6ccccc6N(C=O)C15CC2)C43 (stereo not drawn)		> 100 µM		> 100 µM		> 100 µM		> 100 µM		> 100 µM		> 100 µM		> 100 µM		> 100 µM		> 100 µM		> 100 µM
O=C(Oc1cccc(F)c1OC(=O)c1cccc(O)c1)c1cccc(O)c1	20.2 µM	> 100 µM	66.7 µM	> 100 µM	56.6 µM	> 100 µM	37 µM	> 100 µM	34.9 µM	> 100 µM	13 µM	> 100 µM	> 100 µM	> 100 µM	35.5 µM	> 100 µM	23.6 µM	> 100 µM	> 100 µM	> 100 µM
C[C@]12CC[C@@H]3c4ccc(OC(=O)N(CCCl)CCCl)cc4CC[C@H]3[C@@H]1CC[C@@H]2O	1.6 µM	10.8 µM	0.354 µM	6.15 µM	3.37 µM	17.4 µM and 3.48 µM	2.83 µM	13.7 µM	1.08 µM		2.43 µM	14.3 µM	1.89 µM	10.8 µM	2.48 µM	15.1 µM	3.71 µM	> 68.5 µM	1.6 µM	9 µM
C=C(C)C(O)CCC1(C)C=Cc2c(c(C)cc3c2[nH]c2ccccc23)O1 (stereo not drawn)	9.87 µM	25 µM and 21.5 µM		21.3 µM	9.57 µM	25 µM and 21.5 µM	3.88 µM	10.8 µM and 14.2 µM		26.4 µM	3.12 µM	8.4 µM and 12.2 µM		13.5 µM		9.8 µM		25 µM and 16 µM		26.6 µM
O=C(CCCCCCNC(=O)c1cnc(N(c2ccccc2)c2ccccc2)nc1)NO	2.07 µM	> 33.9 µM	2.04 µM	> 36.8 µM	3.85 µM	62.4 µM	6.18 µM	> 73.1 µM	2.99 µM	> 67.1 µM	2.15 µM	11.4 µM	2.54 µM	> 100 µM	1.5 µM	> 51.9 µM	3.99 µM	23.2 µM	2.5 µM	14.8 µM
CC(=O)NC1C(OC[C@@H](CC(=O)N[C@@H](CC(=O)O)CC(=O)N[C@H](CC(=O)N[C@@H](CCCN)CC(=O)N[C@@H](CCCN)CC(=O)N[C@H](CC(N)=O)C(C)C)C(C)C)NC(=O)C[C@@H](N)C(C)C)OC(CO)C(O)C1O (stereo partly drawn)	> 100 µM	> 100 µM	> 100 µM	> 100 µM	> 100 µM	> 100 µM	> 100 µM	> 100 µM	> 100 µM	> 100 µM	> 100 µM	> 100 µM	> 100 µM	> 100 µM	> 100 µM	> 100 µM	> 100 µM	> 100 µM	> 100 µM	> 100 µM
C/C(=N\NC(=S)N1CC2CCC(CC2)C1)c1nccs1		13.4 µM		12.7 µM		12.5 µM		7.55 µM		14 µM		9.09 µM		38.6 µM		16.2 µM		8.99 µM		14.3 µM
COc1ncnc2c(-c3ccccc3)cn(COCc3ccccc3)c12	2.67 µM	23 µM	2 µM	6.13 µM	3.12 µM	30 µM	4.55 µM	> 100 µM	2.53 µM	9.32 µM	3.27 µM	14.7 µM	7.8 µM	> 100 µM	4.03 µM	> 100 µM	3.82 µM	> 100 µM	1.96 µM	10.1 µM
COc1ccc(C(=S)N2CCN(c3cccc(C)c3)CC2)cc1OC	3.47 µM	> 100 µM	1.09 µM	4.04 µM	6.85 µM	> 100 µM	7.54 µM	> 100 µM	3.06 µM	> 100 µM	5.46 µM	> 100 µM	3.16 µM	31.7 µM	2.16 µM	11.9 µM	5.92 µM	> 100 µM	4.85 µM	> 100 µM

Reference: PubChem BioAssay (NCI)
